Test results published in article PMC5506375 (Journal of medicinal chemistry, 2017).

How the values were obtained:
[1] = biological target: C. jejuni NCTC 11168 PglD acetyltransferase (Campylobacter jejuni subsp. jejuni serotype O:2, UniProt Q0P9D1); assay: continuous C. jejuni PglD inhibition assay; assay type: biochemical; conditions: for Km: PglD substrates
solubility properties = assay type: physicochemical
[2] = long-term stability in solution; assay type: physicochemical
C jejuni PglD [3] = biological target: T1, C jejuni PglD (Campylobacter jejuni subsp. jejuni serotype O:2, UniProt Q0P9D1); assay: PglD inhibition assay with varying substrate concentrations; assay type: biochemical
T1 sequence (Q0P9D1 whole entry): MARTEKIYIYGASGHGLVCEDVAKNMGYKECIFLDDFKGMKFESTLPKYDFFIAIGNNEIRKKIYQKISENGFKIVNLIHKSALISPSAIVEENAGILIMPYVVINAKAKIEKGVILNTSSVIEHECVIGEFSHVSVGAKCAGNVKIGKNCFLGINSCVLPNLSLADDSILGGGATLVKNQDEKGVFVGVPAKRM

C jejuni PglD [4] = biological target: T1, C jejuni PglD; assay: dynamic light scattering of PglD/inhibitor complex; conditions: apo PglD 31% PDI
F. tularensis = conditions: both pre- and post-infection; cited from earlier work
pathogen growth = conditions: in vitro; cited from earlier work
S. typhimurium = conditions: mouse infection model; cited from earlier work
[5] = at therapeutic doses; cited from earlier work

Sequence of C. jejuni NCTC 11168 PglD acetyltransferase (Q0P9D1 whole entry): as above

`CC(=O)SCCNC(=O)CCNC(=O)[C@H](O)C(C)(C)COP(=O)(O)OP(=O)(O)OC[C@H]1O[C@@H](n2cnc3c(N)ncnc32)[C@H](O)[C@@H]1OP(=O)(O)O` [AcCoA, acetyl coenzyme A] gave a Km [1] of 295 µM.
For `Cc1c(C(=O)O)sc2nc(/C=C/c3ccc4[nH]ccc4c3)[nH]c(=O)c12` [Compound 4], the solubility properties (solubility properties) was “poor solubility properties” and the “long-term stability in solution” value [2] was “poor long-term stability in solution”.
For `COc1cc(CCNc2nc(CCc3ccccc3)nc3sc(C(=O)O)c(C)c23)cc(OC)c1` [Compound 37, 4-((3,5-Dimethoxyphenethyl)amino)-5-methyl-2-phenethylthieno[2,3-d]pyrimidine-6-carboxylic acid], the decrease in potency (C jejuni PglD [3]; 2-fold increase in AcCoA) was 2 fold, the decrease in potency (C jejuni PglD [3]; 5-fold increase in AcCoA) was 4 fold and the “effect of higher UDP-4-amino-sugar concentrations on the inhibition” value (C jejuni PglD [3]; significantly higher UDP-4-amino-sugar concentrations) was “no measurable effect”.
With `CNc1nc(CCc2ccccn2)nc2sc(C(=O)O)c(C)c12` [Compound 43, 5-Methyl-4-(methylamino)-2-(2-(pyridin-2-yl)ethyl)thieno[2,3-d]pyrimidine-6-carboxylic acid] the “enhancement of potency versus 17” value ([1]; 43 vs 17) was 4.8 fold.
In the case of `CO[C@H](CNc1nc(CCc2ccc(NC(C)=O)cc2)nc2sc(C(=O)O)c(C)c12)c1ccccc1` [Compound 55, (S)-2-(4-Acetamidophenethyl)-4-((2-methoxy-2-phenylethyl)amino)-5-methylthieno[2,3-d]pyrimidine-6-carboxylic acid], the “polydispersity index (PDI) of PglD/inhibitor complex” value (C jejuni PglD [4]) is reported as 24 % PDI.
For `O=S(=O)(Nc1ccccc1)c1ccc(NC(=S)Nc2ccccc2)cc1` [Compound 56, N-phenyl-4-(3-phenylthioureido)benzenesulfonamide], the “protection against F. tularensis” value (F. tularensis) is given as “provided protection”, the “effect on pathogen growth” value (pathogen growth) is given as “did not affect pathogen growth” and the “efficacy against S. typhimurium” value (S. typhimurium) is given as “prophylactic efficacy”. The toxicity [5] was “not toxic”.
For `CC(=O)N[C@H]1[C@@H](OP(=O)(O)OP(=O)(O)OC[C@H]2O[C@@H](n3ccc(=O)[nH]c3=O)[C@H](O)[C@@H]2O)O[C@H](C)[C@@H](N)[C@@H]1O` [UDP-4-amino-sugar], the Km [1] was 274 µM.
